Results on 33 compounds are retold here after publication PMC12624712 (ACS Infectious Diseases, 2025).

One data set can be described thus: in vitro. To be noted: African green monkey.
Another data set deals with RVFV L protein (Rift valley fever virus, UniProt P27316). Briefly: cell-based.
The subject of the next data set is RVFV strain ZH-548. Kind of data set: microbe, parasite or virus in culture. In kind it is cell-based. To be noted: for IC50: Rift Valley fever virus.
The mark [1] stands for this setting: Vero C1008, 72 h, read-out: IC50, cytopathic effect reduction assay.
Setting [2] is: Vero C1008, read-out: IC50: 95% CI, CPE reduction assay.

Like-named read-outs stand apart in the source and are kept apart here.

RVFV L protein, sequence (P27316 whole entry, looked up): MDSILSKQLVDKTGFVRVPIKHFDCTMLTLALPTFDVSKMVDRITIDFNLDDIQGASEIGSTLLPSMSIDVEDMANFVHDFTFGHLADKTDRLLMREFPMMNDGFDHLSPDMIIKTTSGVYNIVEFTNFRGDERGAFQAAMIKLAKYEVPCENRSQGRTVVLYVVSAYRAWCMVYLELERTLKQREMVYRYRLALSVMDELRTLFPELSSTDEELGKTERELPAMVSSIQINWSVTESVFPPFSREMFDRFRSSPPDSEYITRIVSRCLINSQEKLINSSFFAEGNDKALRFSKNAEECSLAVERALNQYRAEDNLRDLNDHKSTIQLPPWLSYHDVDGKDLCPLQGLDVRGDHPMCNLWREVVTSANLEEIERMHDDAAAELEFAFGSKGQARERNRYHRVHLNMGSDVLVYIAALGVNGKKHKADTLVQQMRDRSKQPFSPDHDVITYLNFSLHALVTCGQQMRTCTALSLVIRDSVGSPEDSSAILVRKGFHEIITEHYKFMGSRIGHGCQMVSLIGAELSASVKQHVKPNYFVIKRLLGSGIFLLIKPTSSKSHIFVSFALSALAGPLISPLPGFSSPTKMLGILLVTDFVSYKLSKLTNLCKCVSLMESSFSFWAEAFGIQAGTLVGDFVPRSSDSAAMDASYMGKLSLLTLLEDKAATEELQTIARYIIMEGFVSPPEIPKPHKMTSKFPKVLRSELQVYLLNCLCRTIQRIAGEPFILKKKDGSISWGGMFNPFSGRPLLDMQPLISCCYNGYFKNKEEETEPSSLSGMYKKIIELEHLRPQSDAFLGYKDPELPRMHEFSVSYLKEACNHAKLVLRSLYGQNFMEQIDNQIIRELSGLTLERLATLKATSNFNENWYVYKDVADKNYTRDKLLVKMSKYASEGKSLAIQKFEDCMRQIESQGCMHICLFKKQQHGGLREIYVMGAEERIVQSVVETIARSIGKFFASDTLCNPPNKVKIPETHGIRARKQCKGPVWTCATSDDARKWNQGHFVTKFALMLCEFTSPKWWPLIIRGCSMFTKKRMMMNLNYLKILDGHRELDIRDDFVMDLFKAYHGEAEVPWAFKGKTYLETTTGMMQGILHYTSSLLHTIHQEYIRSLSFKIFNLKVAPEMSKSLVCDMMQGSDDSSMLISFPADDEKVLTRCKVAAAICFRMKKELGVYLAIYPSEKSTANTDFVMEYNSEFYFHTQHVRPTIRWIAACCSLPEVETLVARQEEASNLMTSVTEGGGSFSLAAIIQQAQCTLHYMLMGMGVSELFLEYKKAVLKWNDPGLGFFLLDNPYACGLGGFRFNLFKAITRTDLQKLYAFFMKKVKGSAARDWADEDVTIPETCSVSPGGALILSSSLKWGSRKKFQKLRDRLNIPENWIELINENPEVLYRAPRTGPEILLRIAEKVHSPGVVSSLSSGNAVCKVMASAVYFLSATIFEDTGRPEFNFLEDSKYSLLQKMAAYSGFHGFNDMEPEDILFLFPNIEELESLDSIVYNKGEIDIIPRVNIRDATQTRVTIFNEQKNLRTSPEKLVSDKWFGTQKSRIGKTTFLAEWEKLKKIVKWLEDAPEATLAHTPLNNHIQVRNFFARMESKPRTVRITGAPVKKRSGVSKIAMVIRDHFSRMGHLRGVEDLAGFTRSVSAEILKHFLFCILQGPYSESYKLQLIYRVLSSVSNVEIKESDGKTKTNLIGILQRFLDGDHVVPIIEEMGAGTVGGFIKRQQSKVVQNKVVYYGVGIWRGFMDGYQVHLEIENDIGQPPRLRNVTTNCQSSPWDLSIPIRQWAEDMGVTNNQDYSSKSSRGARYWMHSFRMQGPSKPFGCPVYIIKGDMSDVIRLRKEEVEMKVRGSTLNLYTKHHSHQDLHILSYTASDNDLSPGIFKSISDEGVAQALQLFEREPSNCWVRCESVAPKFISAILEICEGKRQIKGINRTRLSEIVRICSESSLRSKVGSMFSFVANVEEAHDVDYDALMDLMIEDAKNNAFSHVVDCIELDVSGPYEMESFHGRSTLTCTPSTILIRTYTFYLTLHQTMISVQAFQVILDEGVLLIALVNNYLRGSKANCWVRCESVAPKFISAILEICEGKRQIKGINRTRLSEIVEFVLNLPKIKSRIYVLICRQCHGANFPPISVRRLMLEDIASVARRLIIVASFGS

With 5'-aza-2'-deoxycytidine [Decitabine], in the data set on VERO E6 cells, the CC50 was above 100 µM.

Consider 5'-azacytidine, for which the CC50 in the data set on VERO E6 cells was above 100 µM.

5'-fluoro-2'-deoxycytidine yielded a CC50 in the data set on VERO E6 cells above 100 µM.

The compound `Nc1ccn([C@@H]2O[C@H](CO)[C@@H](O)[C@H]2F)c(=O)n1` [2'-fluoro-2'-deoxycytidine] displayed a CC50 in “in vitro” above 100 µM. Also, the results for the IC50 on RVFV L protein, with RVFV strain ZH-548 (setting [1]) and with RVFV strain ZH-548 (setting [2]) were 5.9 ± 1.1 µM, 3 ± 0.3 µM and 2.4 to 3.9 µM, respectively. In addition, the “Cytotoxicity” value in the data set on VERO E6 cells is listed as “nontoxic in selected concentration range”.

`Nc1ncnc2c1ncn2[C@@H]1O[C@H](CO)[C@@H](O)[C@H]1F` [2´-fluoro-2´-deoxyadenosine] displayed a CC50 in “in vitro” above 100 µM. The IC50 – broadly, the midpoint of a concentration-inhibition curve – with RVFV strain ZH-548 (setting [1]) was above 100 µM.

`Nc1nc2c(ncn2[C@@H]2O[C@H](CO)[C@@H](O)[C@H]2F)c(=O)[nH]1` [2´-fluoro-2´-deoxyguanosine]: the CC50 in “in vitro” is above 100 µM. In addition, in the data set with RVFV strain ZH-548 (setting [1]), the IC50 turned out to be 23 ± 3 µM.

`Cc1cn([C@@H]2O[C@H](CO)[C@@H](O)[C@H]2F)c(=O)[nH]c1=O` [2´-fluoro-2´-deoxythymidine] yielded a CC50 in the data set “in vitro” above 100 µM. In addition, the IC50 in the data set on RVFV strain ZH-548 (setting [1]) is above 100 µM.

In the data set “in vitro”, `O=c1ccn([C@@H]2O[C@H](CO)[C@@H](O)[C@H]2F)c(=O)[nH]1` [2´-fluoro-2´-deoxyuridine] registered a CC50 above 100 µM. Also, the IC50 in the data set with RVFV strain ZH-548 (setting [1]) is above 100 µM.

Take `COC(=O)OCOc1c2n(ccc1=O)N([C@@H]1c3ccccc3SCc3c1ccc(F)c3F)[C@@H]1COCCN1C2=O` [Baloxavir Marboxil]: in “in vitro”, the CC50 was above 100 µM. In addition, in the data set on RVFV strain ZH-548 (setting [1]), the IC50 is above 100 µM.

Compound `Nc1ccn(C[C@@H](CO)OCP(=O)(O)O)c(=O)n1` [Cidofovir] displayed a CC50 in “in vitro” above 100 µM. The “Activity against RVFV in cell culture” value in the data set on RVFV strain ZH-548 was “no effect”. Besides, in the data set on RVFV strain ZH-548 (setting [1]), the IC50 is above 100 µM.

The compound `Nc1ccn([C@@H]2C=C(CO)[C@@H](O)[C@H]2O)c(=O)n1` [Cyclopentenylcytosine] yielded a CC50 in “in vitro” above 100 µM. For the same compound, the IC50 in the data set with RVFV strain ZH-548 (setting [1]) was above 100 µM.

In the data set “in vitro”, `O=c1ccn([C@@H]2C=C(CO)[C@@H](O)[C@H]2O)c(=O)[nH]1` [Cyclopentenyluracil] gave a CC50 above 100 µM. For the same compound, the 50% inhibitory concentration (IC50) in the data set on RVFV strain ZH-548 (setting [1]) was above 100 µM.

`Nc1ccn([C@@H]2O[C@H](CO)[C@@H](O)[C@@H]2O)c(=O)n1` [Cytarabine, Cytosine arabinoside] showed a CC50 in “in vitro” above 100 µM. Moreover, the IC50 in the data set with RVFV strain ZH-548 (setting [1]) is above 100 µM.

Turning to `COc1c(-c2ccc3cc(NS(C)(=O)=O)ccc3c2)cc(-n2ccc(=O)[nH]c2=O)cc1C(C)(C)C` [Dasabuvir], in the data set “in vitro”, the CC50 is 26 ± 7 µM. For the same compound, the “Activity against RVFV in cell culture” value with RVFV strain ZH-548 is “lacked activity”. In addition, the IC50 in the data set on RVFV strain ZH-548 (setting [1]) is above 100 µM.

`O=c1nc(NO)ccn1[C@@H]1O[C@H](CO)[C@@H](O)[C@H]1O` [EIDD-1931] displayed a CC50 in “in vitro” above 100 µM. In addition, the IC50 was 1.6 ± 0.2 µM against RVFV L protein, 2 ± 0.3 µM in the data set on RVFV strain ZH-548 (setting [1]) and 1.5 to 2.8 µM in the data set on RVFV strain ZH-548 (setting [2]). For the same compound, the “Cytotoxicity” value with VERO E6 cells is “nontoxic in selected concentration range”.

`Nc1nc(=O)n([C@@H]2CS[C@H](CO)O2)cc1F` [Emtricitabine]: the CC50 in the data set “in vitro” is above 100 µM. The IC50 in the data set with RVFV strain ZH-548 (setting [1]) is above 100 µM.

As to `NC(=O)c1nc(F)c[nH]c1=O` [Favipiravir], the CC50 in “in vitro” is above 100 µM. Also, the IC50 with RVFV strain ZH-548 (setting [1]) is 37 ± 6 µM.

In the data set “in vitro”, `CCCCCCCC/C=C/CCCCCCCC(=O)OC[C@H]1O[C@@H](n2ccc(N)nc2=O)C(F)(F)[C@@H]1O` [Gemcitabine elaidate] had a CC50 above 100 µM. The IC50 in the data set on RVFV strain ZH-548 (setting [1]) is above 100 µM.

`Nc1ccn([C@@H]2O[C@H](CO)[C@@H](O)C2(F)F)c(=O)n1` [Gemcitabine, 2'-deoxy-2',2'-difluorocytidine] yielded a CC50 in the data set “in vitro” above 100 µM. The half-maximal inhibitory concentration (IC50) in the data set with RVFV strain ZH-548 (setting [1]) was above 100 µM.

As for `CCCC(CCC)C(=O)Nc1ccn([C@@H]2O[C@H](CO)[C@@H](O)C2(F)F)c(=O)n1` [LY-2334737], the CC50 in the data set “in vitro” was above 100 µM. Besides, the 50% inhibitory concentration (IC50) in the data set on RVFV strain ZH-548 (setting [1]) is above 100 µM.

For the compound `Nc1ccn([C@@H]2CS[C@H](CO)O2)c(=O)n1` [Lamivudine], in “in vitro”, the CC50 is above 100 µM. Moreover, the IC50 in the data set with RVFV strain ZH-548 (setting [1]) is above 100 µM.

Compound `CC(C)C(=O)OC[C@H]1O[C@@H](n2ccc(NO)nc2=O)[C@H](O)[C@@H]1O` [Molnupiravir] yielded a CC50 in the data set “in vitro” above 100 µM. The IC50 with RVFV strain ZH-548 (setting [1]) amounted to 27 ± 4 µM.

In turn, `CC(=O)Nc1ccn([C@@H]2O[C@H](CO)[C@@H](O)[C@H]2F)c(=O)n1` [N4-acetyl-2'-fluoro-2'-deoxycytidine] gave a CC50 in the data set “in vitro” above 100 µM. Further, the IC50 in the data set on RVFV strain ZH-548 (setting [1]) was determined as 20 ± 3 µM.

For the compound `O=C(Nc1ccn([C@@H]2O[C@H](CO)[C@@H](O)[C@H]2F)c(=O)n1)c1ccccc1` [N4-benzoyl-2'-fluoro-2'-deoxycytidine], the CC50 in the data set “in vitro” was above 100 µM. Also, the IC50 with RVFV strain ZH-548 (setting [1]) came to 34 ± 4 µM.

`C[C@@]1(F)[C@H](O)[C@@H](CO)O[C@H]1n1ccc(N)nc1=O` [PSI-6130, 2'-deoxy-2'-fluoro-2'-C-methylcytidine] displayed a CC50 in the data set “in vitro” above 100 µM. The IC50 in the data set with RVFV strain ZH-548 (setting [1]) was above 100 µM.

Compound `O=C(O)[C@H]1C2CCC(CC2)[C@@H]1Nc1nc(-c2c[nH]c3ncc(F)cc23)ncc1F` [Pimodivir] returned a CC50 in the data set “in vitro” above 100 µM. Also, the IC50 in the data set on RVFV strain ZH-548 (setting [1]) is above 100 µM.

Turning to `CCC(CC)COC(=O)[C@H](C)N[P@](=O)(OC[C@H]1O[C@@](C#N)(c2ccc3c(N)ncnn23)[C@H](O)[C@@H]1O)Oc1ccccc1` [Remdesivir], the CC50 in the data set “in vitro” is above 100 µM. In addition, in the data set with RVFV strain ZH-548, the “Activity against RVFV in cell culture” value is listed as “no effect”. In the data set on RVFV strain ZH-548 (setting [1]), the IC50 was above 100 µM.

As to `NC(=O)c1ncn([C@@H]2O[C@H](CO)[C@@H](O)[C@H]2O)n1` [Ribavirin], the CC50 in the data set “in vitro” is above 100 µM. Besides, the IC50 in the data set on RVFV strain ZH-548 (setting [1]) was 55 ± 9 µM.

For the compound `CC(C)OC(=O)[C@H](C)N[P@](=O)(OC[C@H]1O[C@@H](n2ccc(=O)[nH]c2=O)[C@](C)(F)[C@@H]1O)Oc1ccccc1` [Sofosbuvir], in the data set “in vitro”, the CC50 is above 100 µM. Further, in the data set on RVFV strain ZH-548, the “Activity against RVFV in cell culture” value is “lacked activity”. In the data set with RVFV strain ZH-548 (setting [1]), the IC50 is above 100 µM.

For the compound `Cc1cn([C@H]2C=C[C@@H](CO)O2)c(=O)[nH]c1=O` [Stavudine], the CC50 in “in vitro” was above 100 µM. Moreover, the IC50 with RVFV strain ZH-548 (setting [1]) was above 100 µM.

In the data set “in vitro”, `NC(=O)c1nccnc1O` [T-1105] displayed a CC50 above 100 µM. Further, the IC50 in the data set with RVFV strain ZH-548 (setting [1]) was above 100 µM.

`CC(C)OC(=O)[C@H](C)N[P@](=O)(CO[C@H](C)Cn1cnc2c(N)ncnc21)Oc1ccccc1` [Tenofovir Alafenamide]: in the data set “in vitro”, the CC50 is above 100 µM. Besides, the IC50 in the data set with RVFV strain ZH-548 (setting [1]) is above 100 µM.

For the compound `Cc1cn([C@H]2C[C@H](N=[N+]=[N-])[C@@H](CO)O2)c(=O)[nH]c1=O` [Zidovudine], in the data set “in vitro”, the CC50 is above 100 µM. Further, the half-maximal inhibitory concentration (IC50) with RVFV strain ZH-548 (setting [1]) was above 100 µM.
